From patent US11129827B2 (priority 2017, dated 2021) come the findings set out here.

Test [1] concerns the target FAAH (Homo sapiens (Human), UniProt O00519). Description: biochemical. As to conditions: for inhibition at 1 µM: read-out: FAAH (human) % inh. 1 μM.
In test [2] the target is MAGL (Homo sapiens (Human), UniProt Q99685). Description: biochemical. As to conditions: for inhibition at 1 µM: read-out: MAGL (human) % inh. 1 μM.
The target of test [3] is FAAH (Mus musculus (Mouse), UniProt O08914). Description: in vivo. The conditions noted are these: po, read-out: FAAH (mouse) % inh. 5 mg/kg.
Test [4] concerns the target MAGL (Mus musculus (Mouse), UniProt O35678). Description: in vivo. As to conditions: po, read-out: MAGL (mouse) % inh. 5 mg/kg.

Molecules are shown by their SMILES. pIC50: −log10 of the molar value. Like-named read-outs stand apart in the source and are kept apart here.

Turning to `C[C@@H]1CN(Cc2cc(Cl)cc(C(F)(F)F)c2)CCN1C(=O)Oc1cncc(C(N)=O)c1` [Example 65, (R)-5-Carbamoylpyridin-3-yl 4-(3-chloro-5-(trifluoromethyl)benzyl)-2-methylpiperazine-1-carboxylate], the inhibition at 1 µM on FAAH [1] and on MAGL [2] was > 75% throughout. Besides, the pIC50 at FAAH [1] (read-out: FAAH (human) IC50) and on MAGL [2] (read-out: MAGL (human) IC50) was 6.00 to 7.00 in each case. In addition, the inhibition at 5 mg/kg on FAAH [3] and on MAGL [4] was > 75% each time.
In the case of `C[C@@H]1CN(Cc2cccc(OC(F)(F)F)c2)CCN1C(=O)Oc1cncc(C(N)=O)c1` [Example 74, (R)-5-Carbamoylpyridin-3-yl 2-methyl-4-(3-(trifluoromethoxy)benzyl)piperazine-1-carboxylate], the pIC50 – broadly, the IC50 on a negative log10 scale, so that one unit is a factor of ten – against FAAH [1] was > 7.00; on MAGL [2] (read-out: MAGL (human) IC50), 6.00 to 7.00. Moreover, the results for the inhibition at 1 µM on FAAH [1] and at MAGL [2] were > 75% and 25 to 50%, respectively. The inhibition at 5 mg/kg at FAAH [3] and at MAGL [4] was > 75% throughout.
As to `C[C@@H]1CN(Cc2cc(Cl)cc(Oc3ncccn3)c2)CCN1C(=O)Oc1cncc(C#N)c1` [Example 86, 5-Cyanopyridin-3-yl (R)-4-(3-chloro-5-(pyrimidin-2-yloxy)benzyl)-2-methylpiperazine-1-carboxylate], the pIC50 on FAAH [1] was > 7.00; on MAGL [2] it was 6.00 to 7.00. Moreover, the inhibition at 1 µM on FAAH [1] and on MAGL [2] was > 75% in each case. In addition, the inhibition at 5 mg/kg at FAAH [3] and at MAGL [4] was > 75% each time.
